Measurements as given in US20150290418A1, “TREATMENT OF RESPIRATORY CONDITION USING TARGETED DELIVERY” (Beth Israel Deaconess Medical Center, Inc., priority 2013, published 2015).

Experiments:
Assay type in all cases: in vivo
respiratory system = test: Respiratory impedance spectrum (resistance and elastance) during MCh doses and after intravenous atropine
Experimental: By combining specific frequencies such that there is physiologic tidal excursion, in an example embodiment, the EVW is able to maintain gas exchange during conventional ventilation while providing continuous assessment of Z. The EVW differs from other oscillatory waveforms in that it has been modified to allow passive expiration, so Z is calculated from the inspiratory portion of the breath only.
The mechanical impedance spectrum of the lungs or total respiratory system can be very sensitive indicators of bronchoconstriction and response to therapy. Although mathematically Z is a complex number with real and imaginary parts, it can be expressed in terms of effective frequency dependent resistance and elastance. Measurements can be obtained before and 5 minutes following a deep inspiration (DI) to 35 cm H2O, as well as after administration of intravenous atropine. Under pre and post-DI conditions, both respiratory resistance (Rrs) and elastance (Ers) increased at each frequency with increases in MCh dose. At the lowest frequencies, Rrs increased ˜50% during the highest dose of MCh compared with baseline due to increases in both airway and tissue resistances. The Ers increased by ˜65% as the parenchyma stiffens due to airway-tissue interdependence. […] Thus, the impedance spectra reveal subtleties of airway mechanics and response to therapy not evident from simple Rrs and Ers estimates measured at a single breathing frequency. Coupling these types of data to distributed models of airway and tissue mechanics then allows estimates of the heterogeneity of airway or tissue changes in addition to the overall lung properties.

airways [1] = test: Lung measurements for targeted isoflurane delivery during phases of treatment (FIG. 7); details: following targeted therapy with isoflurane
Excerpt: Severe sustained bronchospasm may be established using continuous i.v. infusion of methacholine. Using the anesthetic ventilator system, a user has the ability to control the timing, peak concentration, and duration of inhaled isoflurane delivery for various ranges of conventional ventilator rates and tidal volumes typical of ICU patients. In one embodiment, the solenoid valves (shown in FIG. 1) can be programmed to deliver isoflurane during the last 180 cc of the delivered inspired volume. Furthermore, none of the inhaled isoflurane delivered during the last portion of the inspiratory period reaches the alveolar compartment to reduce the risk of side effects and systemic absorption.
FIG. 7 are exemplary graphs 700 illustrating various lung measurements for targeted isoflurane delivery measured during various phases of treatment, according to an example embodiment. As shown in graphs 700, various lung measurements, including lung resistance (RL), lung elastance (EL), and dead space (VD), are measured as described above. […] The estimates of lung resistance and lung elastance may be obtained via multiple linear regression on measured flow and transplumonary pressure waveforms. Anatomic dead space may be estimated using breath-by-breath volume capnography. Capnography is the monitoring of the concentration or partial pressure of carbon dioxide in the respiratory gases. These measurements may be acquired at least under baseline conditions, during bronchoconstriction, after 10-20 minutes of volatile anesthetic treatment, and after maximal bronochodilation with i.v. atrophine. Airway constriction results in increased airway resistance and stiffening of the lung parenchyma, which is often measured with lung resistance and lung elastance. Measuring these parameters help in determining the effectiveness of the targeted delivery treatment.

airways [2] = test: Bronchodilation with targeted versus continuous delivery mode of volatile anesthetics (FIG. 8); details: targeted vs continuous delivery
Excerpt: The various delivery modes are at least targeted mode and continuous mode. […] Using the systems and methods described here, volatile anesthetics can be selectively delivered for a specified interval during inspiration.

[3] = Isoflurane traces during targeted and continuous delivery modes (FIG. 9); details: two breaths
Excerpt: FIG. 9 are exemplary graphs 900 illustrating isoflurane traces during various delivery modes in relation to the delivered tidal volume for two breaths, according to an example embodiment. As shown in graphs 900, the solid line represents the amount of isoflurane in the lungs and the dotted line represents the tidal volume (Vt) over time.

[4] = following intravenous atropine, MCh 200 μg/min
[5] = following intravenous atropine, any frequency

## CC(=O)OC(C)C[N+](C)(C)C (stereo not shown) [MCh, methacholine]
Respiratory system; highest dose of MCh
  increase in respiratory elastance (Ers): ~65%
Respiratory system; lowest frequencies, highest dose of MCh (200 μg/min)
  increase in respiratory resistance (Rrs) compared with baseline: ~50%

## CN1[C@@H]2CC[C@H]1C[C@@H](OC(=O)C(CO)c1ccccc1)C2 (stereo partly shown) [atropine]
Respiratory system; [4]
  Ers compared with value at the highest MCh dose: decrease
  Rrs compared with value at the highest MCh dose: decrease
Respiratory system; [5]
  Ers compared with baseline value: no significant difference
  Rrs compared with baseline value: no significant difference

## FC(F)OC(Cl)C(F)(F)F (stereo not shown) [isoflurane]
Airways [1]
  lung elastance (EL): decreasing trend
  lung resistance (RL): decreasing trend
Airways [1]; evidence of bronchodilation
  estimation of dead space (VD): increasing
Airways [2]
  bronchodilation, targeted delivery mode compared with continuous delivery mode: slightly higher
[3]; over time
  levels of isoflurane agent in the lungs, targeted compared with continuous delivery method: lower for most of the time
[3]
  peak level of isoflurane, targeted compared with continuous delivery method: comparable

## FCOC(C(F)(F)F)C(F)(F)F [sevoflurane]
Airways [2]
  bronchodilation, targeted delivery mode compared with continuous delivery mode: slightly higher
